Patent US5449692A, “Substituted (arylalkylaminobenzyl) aminopropionamide derivatives and process for their preparation” (Farmitalia Carlo Erba S.r.l., priority 1993, dated 1995)
Counter-ions that a name gives are not always drawn.

How the values were obtained:
[1] = antagonism of maximal electroshock seizures (MES); format: in vivo; conditions: MES test; read-out: MES - ED50 (effective dose in 50% of treated animals)
in vivo = assay: in vivo
Protocol: The neurotoxicity of the compounds and of the reference anticonvulsants was assessed with the rotorod test (Dunan and Miye, J. Am. Pharm. Ass. Sci. Ed., 1957, 46, 208; Kinnard et al. J. Pharmacol. Exp. Ther. 1957, 121, 354; Horowitz, Nature, 1963, 200, 369).
For instance, following Table 1 summarizes the activity and neurotoxicity data obtained in the MES test and in the rotorod test, respectively, for a representative group of compounds according to the present invention, in comparison with the prior art compound 2-(4-benzyl-aminobenzyl)aminopropanamide, dihydrochloride (internal code FCE 26749) which is known from WO-90/14334.
TD50 means toxic dose in 50% of treated animals

Row | Structure (SMILES) | ED50 [1] | TD50 (in vivo) | selectivity ratio (in vivo)
1 | CC(NCc1ccc(NCc2ccccc2)cc1)C(N)=O (stereo not drawn) [FCE 26749, 2-(4-benzyl-aminobenzyl)aminopropanamide, dihydrochloride, reference compound] | 9.5 mg/kg | 217 mg/kg | 23
2 | CC(NCc1ccc(NCc2ccc(Cl)cc2)cc1)C(N)=O.Cl.Cl (stereo not drawn) [FCE 28622, 2-[4-(4-chlorobenzyl)aminobenzyl]aminopropanamide, dihydrochloride] | 18.7 mg/kg | 1640 mg/kg | 88
3 | CC(NCc1ccc(NCc2ccc(F)cc2)cc1)C(N)=O.Cl.Cl (stereo not drawn) [FCE 28640, 2-[4-(4-fluorobenzyl)aminobenzyl]aminopropanamide, dihydrochloride] | 26.5 mg/kg | 1680 mg/kg | 63
4 | CC(NCc1ccc(NCc2cccc(Cl)c2)cc1)C(N)=O.Cl.Cl (stereo not drawn) [FCE 28714, 2-[4-(3-chlorobenzyl)aminobenzyl]aminopropanamide, dihydrochloride] | 11.3 mg/kg | 663 mg/kg | 59
5 | CC(NCc1ccc(NCc2ccc(Br)cc2)cc1)C(N)=O.Cl.Cl (stereo not drawn) [FCE 28639, 2-[4-(4-bromobenzyl)aminobenzyl]aminopropanamide, dihydrochloride] | 29.1 mg/kg | 1900 mg/kg | 65
6 | C[C@H](NCc1ccc(NCc2cccc(F)c2)cc1)C(N)=O [FCE 27232, 2-[4-(3-fluorobenzyl)aminobenzyl]aminopropanamide, dihydrochloride] | 6.4 mg/kg | 516 mg/kg | 81
7 | CC(NCc1ccc(NCCc2ccccc2)cc1)C(N)=O.Cl.Cl (stereo not drawn) [FCE 28623, 2-[4-(2-phenylethyl)aminobenzyl]aminopropanamide, dihydrochloride] | 17.1 mg/kg | 917 mg/kg | 54
